According to patent publication US20240381871A1, “5-HALOALKOXY-PYRIMIDINE COMPOUNDS AS HERBICIDES” (SYNGENTA CROP PROTECTION AG, priority 2020, published 2024):

Tests used:
Format in all cases: in vivo
[1] = test system: Zea mays (ZEAMX); experiment: Comparative post-emergence test, crop damage; conditions: 336 h, after 14 days, read-out: ZEAMX damage (100=total damage to plant; 0=no damage)
Method: (§1) Seeds of test species were sown in standard soil in pots. After cultivation for 10 days (post-emergence) under controlled conditions in a glasshouse (at 24/16° C., day/night; 14 hours light; 65% humidity), the plants were sprayed with an aqueous spray solution derived from the formulation of the technical active ingredient in 0.6 ml acetone and 45 ml formulation solution containing 10.6% Emulsogen EL (Registry number 61791-12-6), 42.2% N-methyl pyrrolidone, 42.2% dipropylene glycol monomethyl ether (CAS RN 34590-94-8) and 0.2% X-77 (CAS RN 11097-66-8). The test plants were then grown in a glasshouse under controlled conditions in a glasshouse (at 24/16° C., day/night; 14 hours light; 65% humidity) and watered twice daily. After 14 days, the test was evaluated (100=total damage to plant; 0=no damage to plant). • Weeds: Ipomea hederacea (IPOHE) • Crops: Zea mays (ZEAMX)

[2] = test system: Ipomea hederacea (IPOHE); experiment: Comparative post-emergence test, weed control; conditions: Ipomoea hederacea, 336 h, after 14 days, read-out: IPOHE damage (100=total damage to plant; 0=no damage)
Method: as §1

[3] = test system: Abutilon theophrasti (ABUTH); experiment: Pre-emergence herbicidal glasshouse test; conditions: rate 250, evaluated after 13 days, the values are:
Method: (§2) Seeds of a variety of test species are sown in standard soil in pots, Amaranthus retoflexus (AMARE), Abutilon theophrasti (ABUTH), Setaria faberi (SETFA), Echinochloa crus-galli (ECHCG) and Ipomoea hederacea (IPOHE). After cultivation for one day (pre-emergence) or after 8 days cultivation (post-emergence) under controlled conditions in a glasshouse (at 24/16° C., day/night; 14 hours light; 65% humidity), the plants are sprayed with an aqueous spray solution derived from the formulation of the technical active ingredient in acetone/water (50:50) solution containing 0.5% Tween 20 (polyoxyethelyene sorbitan monolaurate, CAS RN 9005-64-5). Compounds are applied at 1000 g/ha unless otherwise stated. The test plants are then grown in a glasshouse under controlled conditions in a glasshouse (at 24/16° C., day/night; 14 hours light; 65% humidity) and watered twice daily. After 13 days for pre and post-emergence, the test is evaluated for the percentage damage caused to the plant.

[4] = test system: Echinochloa crus-galli (ECHCG); experiment: Pre-emergence herbicidal glasshouse test; conditions: rate 250, evaluated after 13 days, the values are: phytotoxicity score (1-5)
Method: as §2

[5] = test system: Amaranthus retoflexus (AMARE); experiment: Pre-emergence herbicidal glasshouse test; conditions: rate 250, evaluated after 13 days, the values are:
Method: as §2

[6] = test system: Ipomoea hederacea (IPOHE); experiment: Pre-emergence herbicidal glasshouse test; conditions: rate 250, evaluated after 13 days, the values are:
Method: as §2

[7] = test system: Setaria faberi (SETFA); experiment: Pre-emergence herbicidal glasshouse test; conditions: rate 250, evaluated after 13 days, the values are: phytotoxicity score (1-5)
Method: as §2

[8] = test system: Abutilon theophrasti (ABUTH); experiment: Post-emergence herbicidal glasshouse test; conditions: rate 250, evaluated after 13 days, the values are:
Method: as §2

[9] = test system: Echinochloa crus-galli (ECHCG); experiment: Post-emergence herbicidal glasshouse test; conditions: rate 250, evaluated after 13 days, the values are: phytotoxicity score (1-5 scale)
Method: as §2

[10] = test system: Amaranthus retoflexus (AMARE); experiment: Post-emergence herbicidal glasshouse test; conditions: rate 250, evaluated after 13 days, the values are: phytotoxicity score (1-5 scale)
Method: as §2

[11] = test system: Ipomoea hederacea (IPOHE); experiment: Post-emergence herbicidal glasshouse test; conditions: rate 250, evaluated after 13 days, the values are: phytotoxicity score (1-5 scale)
Method: as §2

[12] = test system: Setaria faberi (SETFA); experiment: Post-emergence herbicidal glasshouse test; conditions: rate 250, evaluated after 13 days, the values are:
Method: as §2

SMILES | plant injury at 2 g/ha [1] [%] | plant injury at 8 g/ha [1] [%] | plant injury at 60 g/ha [1] [%] | plant injury at 125 g/ha [1] [%] | plant injury at 250 g/ha [1] [%] | pest or weed control at 2 g/ha [2] [%] | pest or weed control at 8 g/ha [2] [%] | pest or weed control at 60 g/ha [2] [%] | pest or weed control at 125 g/ha [2] [%] | pest or weed control at 250 g/ha [2] [%] | Pre-emergence activity ABUTH (% phytotoxicity) [3] | Pre-emergence activity ECHCG (% phytotoxicity) [4] | Pre-emergence activity AMARE (% phytotoxicity) [5] | Pre-emergence activity IPOHE (% phytotoxicity) [6] | Pre-emergence activity SETFA (% phytotoxicity) [7] | Post-emergence activity ABUTH (% phytotoxicity) [8] | Post-emergence activity ECHCG (% phytotoxicity) [9] | Post-emergence activity AMARE (% phytotoxicity) [10] | Post-emergence activity IPOHE (% phytotoxicity) [11] | Post-emergence activity SETFA (% phytotoxicity) [12] | further results
COc1cnc(Oc2cccc(F)c2-c2cc(C(F)F)no2)nc1 | 0 | 0 | 10 | 10 | 10 | 10 | 10 | 20 | 50 | 60 |  |  |  |  |  |  |  |  |  |  | plant injury at 500 g/ha [1]: 40%; pest or weed control at 500 g/ha [2]: 70%
COc1cnc(Oc2cccc(Cl)c2-c2cc(C(F)F)no2)nc1 | 0 | 0 | 10 | 20 | 30 | 20 | 30 | 20 | 50 | 60 |  |  |  |  |  |  |  |  |  |  | 
O=C(CCC(F)(F)F)c1c(Cl)cccc1Oc1ncc(OC(F)F)cn1 [Compound 1.027, 1-[2-chloro-6-[5-(difluoromethoxy)pyrimidin-2-yl]oxy-phenyl]-4,4,4-trifluoro-butan-1-one] |  |  |  |  |  |  |  |  |  |  | 3 | 2 | 4 | 1 | 4 | 3 | 1 | 4 | 3 | 1 | 
Fc1cccc(Oc2ncc(OC(F)(F)F)cn2)c1-c1cc(C(F)F)no1 [Compound 1.002, 3-(difluoromethyl)-5-[2-fluoro-6-[5-(trifluoromethoxy)pyrimidin-2-yl]oxy-phenyl]isoxazole] |  |  |  |  |  |  |  |  |  |  | 5 | 4 | 5 | 4 | 5 | 4 | 4 | 4 | 3 | 4 | 
O=C(CCC(F)(F)F)c1c(Br)cccc1Oc1ncc(OC(F)F)cn1 [Compound 1.028] |  |  |  |  |  |  |  |  |  |  | 2 | 1 | 5 | 1 | 5 | 2 | 1 | 5 | 2 | 1 | 
Fc1cccc(Oc2ncc(OC(F)F)cn2)c1-c1cc(C(F)F)no1 [Compound 1.001, 5-[2-[5-(difluoromethoxy)pyrimidin-2-yl]oxy-6-fluoro-phenyl]-3-(difluoromethyl)isoxazole] |  | 0 | 20 | 10 | 20 | 30 | 20 | 70 | 80 | 90 | 5 |  | 5 | 5 | 5 | 3 |  | 4 | 3 | 4 | plant injury at 500 g/ha [1]: 40%; pest or weed control at 500 g/ha [2]: 100%
COc1cnc(Oc2cccc(C#N)c2-c2cc(C(F)F)no2)nc1 | 0 | 0 | 0 | 10 | 10 | 10 | 30 | 40 | 50 | 50 |  |  |  |  |  |  |  |  |  |  | plant injury at 500 g/ha [1]: 40%; pest or weed control at 500 g/ha [2]: 60%
N#Cc1cccc(Oc2ncc(OC(F)F)cn2)c1CCCC(F)(F)F [Compound 1.025] |  |  |  |  |  |  |  |  |  |  | 1 | 1 | 1 | 1 | 1 | 1 | 1 | 2 | 1 | 1 | 
COc1cnc(Oc2cccc(Br)c2-c2cc(C(F)F)no2)nc1 | 0 | 0 | 0 | 10 | 30 | 10 | 30 | 50 | 50 | 60 |  |  |  |  |  |  |  |  |  |  | 
COc1cnc(Oc2ccccc2-c2cc(C(F)F)no2)nc1 [Compound 213] | 0 | 0 | 0 | 0 | 0 | 0 | 10 | 20 | 30 | 40 |  |  |  |  |  |  |  |  |  |  | plant injury at 500 g/ha [1]: 20%; pest or weed control at 500 g/ha [2]: 50%
FC(F)Oc1cnc(Oc2cccc(Br)c2CCCC(F)(F)F)nc1 [Compound 1.024] |  |  |  |  |  |  |  |  |  |  | 1 | 1 | 2 | 1 | 1 | 1 | 1 | 2 | 1 | 1 | 
FC(F)Oc1cnc(Oc2cccc(Cl)c2CCCC(F)(F)F)nc1 [Compound 1.023, 2-[3-chloro-2-(4,4,4-trifluorobutyl)phenoxy]-5-(difluoromethoxy)pyrimidine] |  |  |  |  |  |  |  |  |  |  | 1 | 1 | 1 | 1 | 1 | 1 | 1 | 1 | 1 | 1 | 
